Data: patent US20080090812A1 (priority 2004, published 2008)
“Also recorded” adds a separate entry of the source. Where a SMILES comes first, the peptide text is derived from it. The star is where a group is joined. Cbz = O=C(OCc1ccccc1)*; CH2F = FC*

How the values were obtained:
[1] = test system: caspase-3; test: SJG-136 induced caspase-3 activation in B-CLL cells (PhiPhiLux G1D2 substrate, flow cytometry); assay type: cell-based, human; conditions: inhibitor final concentration 2 μM, SJG-136-treated B-CLL cell cultures
Experimental: B-CLL cells were incubated at 37° C. in a humidified 5% carbon dioxide atmosphere in the presence of SJG-136 (10^−10−10^−7 M) or fludarabine (10^−7″10^−5 M) for 12, 24 and 48 h. Cells were then harvested by centrifugation and labeled with CD19 RPE-cy5 conjugated antibody. Subsequently the cells were incubated for 1 h at 37° C. in the presence of the PhiPhiLux™ G1D2 substrate (Calbiochem, Nottingham, UK). The substrate contains two fluorophores separated by a quenching linker sequence that is cleaved by active caspase-3. Once cleaved the resulting products fluoresce green and can be quantified using flow cytometry. In additional experiments the caspase-8 inhibitor, Z-IETD-FMK, or the caspase-9 inhibitor, Z-LEHD-FMK, (Cambridge Bioscience, Cambridge, UK) were added to SJG-136-treated cell cultures (final concentration 2 μM) in order to determine whether either of these inhibitors was able to abrogate the apoptotic effects of SJG-136 in B-CLL cells.

[2] = test system: B-CLL cells; test: Flow cytometry-based in vitro apoptosis assay (FSC/SSC, Annexin V) in primary B-CLL cells; assay type: cell-based, human; conditions: for mean LD50 in previously treated versus untreated patient sub-set: 34 patient cohort (FIG. 5); for degree of apoptosis in the cell culture: B-CLL cultures of the p53/GADD45 experiment (FIG. 4b)
Source text: Peripheral blood samples from 34 patients with B-CLL (20 untreated and 14 treated) and 10 age-matched normal controls were obtained with the patients' informed consent. B-CLL was defined by clinical criteria as well as cellular morphology and the co-expression of CD19 and CD5 in lymphocytes simultaneously displaying restriction of light-chain rearrangement. Staging was based on the Binet classification system.^14 None of the previously treated patients had received therapy for at least three months prior to this study.
Freshly isolated peripheral blood lymphocytes (1×10^6/ml) were cultured in Eagles medium (Invitrogen, Paisley, UK) supplemented with 100 units/ml penicillin, 100 μg/ml streptomycin and 10% fetal calf serum. Lymphocytes were incubated at 37° C. in a humidified 5% carbon dioxide atmosphere in the presence of SJG-136 (10^−10−10^−7 M). […]
In this study changes in forward light scatter (FSC) and side light scatter (SSC) characteristics were used to quantify apoptotic and viable cell populations as described previously.^16-18 Typically, lymphocytes show a reduction in FSC (a function of cytoplasmic shrinkage) and an increase in SSC (due to increased granularity) when they undergo apoptosis.^19 The quantitation of apoptosis using an FSC/SSC gating strategy in conjunction with back gating of R-phycoerythrin cyanine 5 (RPE-cy5) labeled CD19+ (Dako) or R-phycoerythrin labeled CD3+ (Dako) lymphocytes allowed simultaneous acquisition of data in viable and apoptotic B-lymphocyte and T-lymphocyte sub-populations, respectively. All LD50 and LD90 values (the concentration of the relevant chemotheraputic agent required to kill 50% and 90% of cells respectively) were derived from the dose-response curves. Duplicate samples were assessed using fluorescein (FITC)-labeled Annexin V to confirm the presence of apoptotic cells in the cell cultures and to validate the FSC/SSC quantitation method.^20
The data obtained in these experiments were evaluated using the equal variance and paired Student's t-test, and correlation coefficients were calculated from least squares linear regression plots. LD50 values were calculated from line of best-fit analysis of the dose response curves. All statistical analyses were performed using Graphpad Prism 3.0 software (Graphpad Software Inc., San Diego, Calif.).
A flow cytometry-based in vitro apoptosis detection assay was used to determine whether SJG-136 could induce apoptotic cell death in B-CLL cells. The characteristic changes in the forward and side light scatter resulting from cellular shrinkage described previously were used to define apoptosis.^19 In addition, Annexin V labeling was also performed in order to verify the light scatter data.

[3] = test system: B-CLL cells; test: as above; assay type: cell-based, human; conditions: for mean LD50 in previously treated versus untreated patient sub-set: expanded cohort of 46 patients (FIG. 10)
[4] = test system: GADD45; test: Intracellular staining of GADD45 expression in B-CLL cells by flow cytometry; assay type: cell-based, human; conditions: B-CLL cells versus no-drug control (FIG. 4b)
Experimental: (§1) B-CLL cells were cultured for 4h and 48h in the presence or absence of one of the drugs under investigation. Cells were harvested by centrifugation and incubated with 10 μL of anti-CD19-RPE-cy5 conjugated antibody. Subsequently the cells were washed with phosphate buffered saline (PBS) at pH 7.2 and then prepared for intracellular staining of phosphorylated p53 and GADD45 (Santa Cruz Biotechnology, Santa Cruz, Calif.) using a commercially available kit (DAKO, Ely, UK). A FITC-labeled secondary antibody was added to the cells (DAKO) and after a final washing step the cells were resuspended in 0.5 mL of 1% paraformaldehyde prior to flow cytometric analysis using a FACScan flow cytometer (Becton Dickinson, Calif.).
(§2) Phosphorylation of p53 and expression of GADD45 were measured in control B-CLL cell samples with no cytotoxic agent added and in B-CLL cell samples in the presence of either chloambucil or SJG-136.

[5] = test system: calf thymus DNA; conditions: after incubation for 18 hours at 37° C.; cited from earlier work
[6] = test system: phosphorylated p53; test: Intracellular staining of phosphorylated p53 in B-CLL cells by flow cytometry; assay type: cell-based, human; conditions: 10 μM chlorambucil or 25 nM SJG-136, versus no-drug control (FIG. 4a)
Experimental: as §1, §2

[7] = 34 B-CLL patient samples, 48 h exposure
[8] = expanded cohort, 46 B-CLL patient samples

Structure (SMILES)	abrogation of SJG-136-induced caspase-3 activation by added caspase inhibitor [1]	mean LD50 in previously treated versus untreated patient sub-set [2]	degree of apoptosis in the cell culture [2]	mean LD50 in previously treated versus untreated patient sub-set [3]	GADD45 expression [4]	phosphorylated p53 (p-p53) [6]	also measured
CC[C@H](C)[C@H](NC(=O)OCc1ccccc1)C(=O)N[C@@H](CCC(=O)OC)C(=O)N[C@H](C(=O)N[C@@H](CC(=O)OC)C(=O)CF)[C@@H](C)O [Z-IETD.FMK, Z-IETD-FMK] (Cbz-IE(OMe)TD(OMe)-CH2F)	not	–	–	–	–	–	–
C=C1C[C@H]2C=Nc3cc(OCCCOc4cc5c(cc4OC)C(=O)N4CC(=C)C[C@H]4C=N5)c(OC)cc3C(=O)N2C1 [SJG-136]	–	no effect	greater degree of apoptosis than either the control experiment or the chlorambucil experiment	no effect	only slightly higher than in the control experiment	none of the B-CLL cells (n=9) treated with SJG-136 phosphorylated p53	mean LD50 value (±SD) [2, 7]: 9.06 nM; mean LD90 value (±SD) [2, 7]: 43.09 nM; patient samples in which apoptosis was induced ([2]; 34 patient cohort): all 34 patient samples; patient samples in which apoptosis was induced ([3]; 46 patient cohort): all 46 patient samples; mean LD50 value (±SD) [3, 8]: 0.19 nM; mean LD90 value (±SD) [3, 8]: 38.63 nM; increase in the thermal denaturation of calf thymus DNA [5]: 33.6 °C
COC(=O)CC[C@H](NC(=O)[C@H](CC(C)C)NC(=O)OCc1ccccc1)C(=O)N[C@@H](Cc1cnc[nH]1)C(=O)N[C@@H](CC(=O)OC)C(=O)CF [Z-LEHD-FMK] (Cbz-LE(OMe)HD(OMe)-CH2F)	partially abrogated	–	–	–	–	–	–
Nc1nc(F)nc2c1ncn2[C@@H]1O[C@H](CO)[C@@H](O)[C@@H]1O [fludarabine, reference compound]	–	significantly higher mean LD50 value	–	significantly higher mean LD50 value	–	–	in vitro sensitivity of samples from two treated patients with known p53 mutation ([2]; compared with remaining patient samples): high degree of in vitro resistance
O=C(O)CCCc1ccc(N(CCCl)CCCl)cc1 [chlorambucil]	–	–	significantly increased over the control experiment	–	much higher; also recorded: marked increase in GADD45 expression	an increase in phosphorylated p53	–
